The values that follow are results of earlier work, collected in patent US7148216B2, “Combinations of drugs for the treatment of neoplastic disorders” (CombinatoRx, Inc., priority 2000, dated 2006).

Like-named read-outs stand apart in the source and are kept apart here.

Turning to `N=C(N)c1ccc(OCCCCCOc2ccc(C(=N)N)cc2)cc1` [pentamidine isethionate, 4,4′-diamidino-diphenoxypentane di(β-hydroxyethanesulfonate)], the solubility entry is “insoluble” (in ether, acetone, and chloroform); “soluble” (in water and glycerin).
